Measurements taken from US5386017A, “Alkenes for producing chemiluminescent 1, 2-dioxetane compounds” (priority 1990, dated 1995).

What was measured:
[1] = test system: Aryl esterase (carboxylic ester hydrolase) from porcine liver; assay: Enzymatic triggering of chemiluminescence with aryl esterase; type: biochemical; conditions: for effect of competing substrate on light intensity of dioxetane 2e reaction: 10 μL of […] added at maximum emission, pH 7.6 phosphate buffer, 37° C.
Method: A secondary stock solution of the acetate-protected dioxetane 2e was made by evaporating an aliquot of the methylene chloride stock equivalent to 10 micromoles of dioxetane and dissolving in 5.0 mL of 2-methoxyethanol to give a final concentration of 0.002M. […] Buffer solutions prepared in distilled water were 0.05M phosphate pH 7.6 and 8.0, 0.02M Tris (tris-hydroxymethylaminomethane maleate) pH 7.6, and pH 9.0 phosphate/borate buffer. Aryl esterase (also called carboxylic ester hydrolase (P-5221)) from porcine liver was purchased from Sigma Chemical Co. as a suspension of 11 mg of protein per mL in 3.2M (NH4)2 SO4 solution pH 8.0. Each mg of protein is equivalent to 260 Units, where 1 Unit is defined as the amount which will hydrolyze 1 micromole of ethyl butyrate in 1 minute at pH 8.0, 25° C. […] Injection of 1 μL of (0.26 units) of aryl esterase to the stirred solution caused a chemiluminescent signal to appear. The intensity reached a maximum at about 3 minutes and decayed over a 30 minute period.
3.) When distilled water was substituted for the Tris buffer, no chemiluminescence signal was observed, but on adding Tris buffer to this solution light emission similar to that above was produced. […] Addition of untreated enzyme preparation to this solution again produced light. […] The emission could be totally extinguished by addition of sufficient SDS. The decrease in light emission is not due to photophysical quenching of the excited state since thermal decomposition in the same solvent system at elevated temperatures results in readily detectable chemiluminescence.
This type of behavior explains the effect of the addition of the known esterase substrates α-naphthyl acetate and β-naphthyl acetate. […] A solution of 25 μL of the dioxetane stock (0.002M) in 3 mL of pH 7.6 phosphate buffer maintained at 37° C. was treated wtih 5μL of the enzyme to initiate the chemiluminescence. At the point of maximum emission 10 μL of 0.011M solution of either α- or β-naphthyl acetate were added.

[2] = 25° C.; cited from earlier work
[3] = type: physicochemical; conditions: for Ea: activation energy for decomposition in xylene; for log A / k (sec^-1) at 25° C. / t1/2 at 25° C.: decomposition in xylene
Method: Rates of dioxetane decomposition were monitored by the decay of chemiluminescence of aerated solutions. A cylindrical Pyrex vial equipped with magnet stir bar was filled with 3-4 mL of the reaction solvent, sealed with a Teflon-lined screw cap and placed in the thermostatted sample block of the chemiluminescence-measuring apparatus (Black Box). Temperature control was provided by an external circulating water bath. Appropriate values for the instrument gain and optical slit size were selected. […]. The vial was sealed with a Teflon-lined screw cap to prevent evaporation when high temperatures were used. Measurement of the signal was begun by opening the shutter. The chemiluminescent decay was generally recorded for at least three half-lives. Calculation of the first-order rate constant, k, from the In(Intensity) vs. time data was performed by a computer program utilizing a standard least-squares treatment. The correlation coefficient, r, was typically at least 0.999 and varied less than 5% between replicate samples. The observed rate was not measurably concentration dependent.
Activation parameters for decomposition of the dioxetanes were calculated from plots of In k vs. l/T (Arrhenius eq.) or In k/t vs. l/T (Eyring eq.) by a standard least-squares linear regression analysis.

[4] = 0.26 units aryl esterase, pH 7.6 Tris buffer, 25° C.

Row | SMILES | Ea [3] | log A [3] | k (sec^-1) at 25° C. [3] [s⁻¹] | t1/2 at 25° C. [3] [yrs] | further results
1 | CC(=O)Oc1ccc2ccccc2c1 [β-naphthyl acetate, reference compound] |  |  |  |  | effect of competing substrate on light intensity of dioxetane 2e reaction [1]: rapid decrease in light intensity was noted followed by restoration of the original intensity within less than one minute
2 | Oc1ccc(C23OCCOC2(c2ccccc2)OO3)cc1 (centres unmarked) [deprotonated dioxetane (X=O^-)] |  |  |  |  | decomposition rate relative to the protonated form (X=OH) [2]: 5.7×10^6 times faster
3 | COC1(c2ccc3cc(O[Si](C)(C)C(C)(C)C)ccc3c2)OOC12C1CC3CC(C1)CC2C3 (centres unmarked) [Dioxetane 2c] | 27.0 | 11.7 | 8.72e-09 | 2.5 | 
4 | COC1(c2ccc3cc(O)ccc3c2)OOC12C1CC3CC(C1)CC2C3 (centres unmarked) [Dioxetane 2b, 4-(6-Hydroxy-2-naphthyl)-4-methoxyspiro[1,2-dioxetane-3,2'-adamantane]] | 29.7 | 13.3 | 3.83e-09 | 5.7 | 
5 | COC1(c2ccc3cc(OC(C)=O)ccc3c2)OOC12C1CC3CC(C1)CC2C3 (centres unmarked) [Dioxetane 2e, 4-(6-Acetoxy-2-naphthyl)-4-methoxyspiro[1,2-dioxetane-3,2' -adamantane]] |  |  |  |  | duration of thermal chemiluminescence ([3]; aliquot in 3 mL o-xylene at 95° C.): persisted for several hours; chemiluminescence signal without enzyme ([1]; 0.3 μmol in 3.0 mL pH 7.6 Tris buffer, 25° C., before enzyme): no chemiluminescence signal was detected; period of decay of chemiluminescence [1, 4]: 30 min; time to maximum chemiluminescence intensity [1, 4]: about 3 minutes
6 | CCCCCCCCCCCCOS(=O)(=O)[O-].[Na+] [sodium lauryl sulfate (SDS), sodium lauryl sulfate, reference compound] |  |  |  |  | effect of enzyme inhibitor on light emission ([1]; added at maximum emission, Tris buffer, 1.5 μL enzyme): irreversible decrease in the intensity
7 | CC(=O)Oc1cccc2ccccc12 [α-naphthyl acetate, reference compound] |  |  |  |  | effect of competing substrate on light intensity of dioxetane 2e reaction [1]: rapid decrease in light intensity was noted followed by restoration of the original intensity within less than one minute
8 | COC1(c2ccc3ccccc3c2)OOC12C1CC3CC(C1)CC2C3 (centres unmarked) [Dioxetane 2a, 4-Methoxy-4-(2-naphthyl)spiro[1,2-dioxetane-3,2'-adamantane]] | 29.7 | 13.2 | 3.17e-09 | 6.9 | 
